The source of these data is publication PMC7006766, “Coumarins from Magydaris pastinacea as inhibitors of the tumour-associated carbonic anhydrases IX and XII: isolation, biological studies and in silico evaluation” (Journal of Enzyme Inhibition and Medicinal Chemistry, 2020).

Read-outs that look alike come from different tables or passages of the source. Bounds are passed on as bounds.

The target in test [1] is T1, hCA II (Homo sapiens, UniProt P00918).
T1 construct: made in house
The format is biochemical.

Test [2] has as its target T2, hCA XII (Homo sapiens, UniProt O43570). Briefly: biochemical. To be noted: stopped flow, 6 h preincubation, mean of three assays.
In test [3] the target is T3, hCA IX (Homo sapiens, UniProt Q16790).
T3 construct: made in house
The class given is biochemical. The note with it: for Ki: stopped flow, 6 h preincubation, mean of three assays.

Test [4] concerns HeLa cells. As to the kind of experiment: MTT cytotoxic assay in cancer HeLa cells. The class given is cell-based. The note with it: Homo sapiens, read-out: IC50 (concentration of compound that reduces the cell viability to 50%). The method, then:
Human carcinoma HeLa cell line was obtained from the American Type Culture Collection (ATCC, Rockville, MD). Cells were grown in Dulbecco’s modified Eagle’s medium (DMEM) with high glucose, supplemented with 10% foetal calf serum (FCS), penicillin (100 units/mL)–streptomycin (100 μg/mL), and 2 mM L-glutamine in a 5% CO2 incubator at 37 °C. Subcultures of the HeLa cells were grown in T-75 culture flasks and passaged with a trypsin-EDTA solution. Cell culture materials were purchased from Invitrogen (Milan, Italy).
The in vitro cytotoxic effect of coumarins 5, 9–12, 15 was evaluated in cancer HeLa cells by the MTT (3-(4,5-dimethylthiazol-2-yl)-2,5-diphenyltetrazolium bromide) reduction assay. Cancer cells were seeded in 96-well plates (density of 3 × 10^4 cells/mL) in 100 μL of medium and cultured for 48 h (80% of cell confluence). Cells were subsequently incubated for 48 h with various concentrations (0.1–100 μM, dissolved in DMSO) of coumarins in culture medium (treated cells). Treated cells were compared for viability to untreated cells (control cells) and vehicle-treated cells (incubated for 48 h with an equivalent volume of DMSO; the maximal final concentration was 1%). After the cell medium removing and washing, cells were subjected to the MTT test[35]. After incubation (3 h), colour development was measured at 570 nm with an Infinite 200 auto microplate reader (Infinite 200, Tecan, Austria); the absorbance is proportional to the number of viable cells. Two independent experiments were performed.
(In general: Formazan colour is commonly taken as a measure of viable cells.)

For test [5], the target named is T4, hCA I (Homo sapiens, UniProt P00915).
T4 construct: made in house
The format is biochemical.

Test [6] has as its target T2, hCA XII.
Test [7] concerns 4T1 cells. The note with it: encapsulated in nanoliposomes vs free compound; cited from earlier work.
[8] abbreviates: stopped flow, 6 h preincubation, mean of three assays, read-out: Ki hCA II.
Where [9] appears, read: stopped flow, 6 h preincubation, mean of three assays, read-out: Ki hCA I.

T4 sequence (P00915 whole entry): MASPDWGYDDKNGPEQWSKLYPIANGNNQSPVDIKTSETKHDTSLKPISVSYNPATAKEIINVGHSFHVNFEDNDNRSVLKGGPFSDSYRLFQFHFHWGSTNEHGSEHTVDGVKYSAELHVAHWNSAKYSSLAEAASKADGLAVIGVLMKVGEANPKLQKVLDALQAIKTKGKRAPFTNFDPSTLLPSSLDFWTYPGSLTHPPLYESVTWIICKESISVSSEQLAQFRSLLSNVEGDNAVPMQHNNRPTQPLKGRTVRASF
T2 sequence (O43570 25-354): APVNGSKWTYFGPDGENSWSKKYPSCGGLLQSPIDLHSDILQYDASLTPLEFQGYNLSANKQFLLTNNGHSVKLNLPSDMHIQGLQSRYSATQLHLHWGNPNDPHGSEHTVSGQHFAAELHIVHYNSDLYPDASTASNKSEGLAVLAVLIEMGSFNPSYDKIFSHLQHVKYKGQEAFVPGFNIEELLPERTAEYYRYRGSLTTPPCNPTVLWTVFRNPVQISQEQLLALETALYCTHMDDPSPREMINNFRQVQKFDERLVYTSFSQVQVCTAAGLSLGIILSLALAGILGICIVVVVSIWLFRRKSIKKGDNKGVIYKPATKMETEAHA

For orientation: Ki means the equilibrium dissociation constant of an inhibitor or competing ligand from its target. Turning to `CC(C)(O)[C@H](O)COc1c2occc2cc2ccc(=O)oc12` [Compound 9, (-)-heraclenol], the Ki in test [1] (setting [8]) was over 10 µM; in test [2], 0.814 µM; in test [3], 0.0275 µM; in test [5] (setting [9]), over 10 µM. Moreover, the IC50 in test [4] (HeLa, 48 h) was over 100 µM.
Consider `C/C(=C\COc1c2occc2cc2ccc(=O)oc12)CO` [Compound 4, E-trichoclin], for which the Ki in test [1] (setting [8]) is over 10 µM; in test [2], 0.55 µM; in test [3], 2.34 µM; in test [5] (setting [9]), over 10 µM.
Take `COc1ccc2ccc(=O)oc2c1C[C@H](OC(C)=O)C(C)(C)O` [Compound 14, 2′-acetoxy-3′-hydroxy-osthol]: the Ki in test [1] (setting [8]) was over 10 µM; in test [2] it was 0.291 µM; in test [3], over 10 µM; in test [5] (setting [9]) it was over 10 µM. For the same molecule, the “Ki ratio IX/XII” value in test [6] (selectivity for hCA XII) is over 34.
`COc1c2occc2cc2ccc(=O)oc12` [Compound 2, xanthotoxin]: the Ki in test [1] (setting [8]) was over 10 µM; in test [2], 0.876 µM; in test [3], 0.195 µM; in test [5] (setting [9]) it was over 10 µM.
With `CC(C)=CCOc1c2occc2cc2ccc(=O)oc12` [Compound 6, imperatorin], the Ki in test [1] (setting [8]) was over 10 µM; in test [2] it was 0.833 µM; in test [3] it was 0.221 µM; in test [5] (setting [9]), over 10 µM.
For `COc1ccc2ccc(=O)oc2c1C[C@@H]1OC1(C)C` [Compound 13, meranzin], the Ki is over 10 µM in test [1] (setting [8]), over 10 µM in test [2], 1.89 µM in test [3] and over 10 µM in test [5] (setting [9]). Further, in test [3], the “Ki ratio XII/IX (selectivity index hCA IX over hCA XII)” value is given as over 5.
For `CC1(C)O[C@@H]1COc1c2occc2cc2ccc(=O)oc12` [Compound 8, heraclenin], the Ki in test [1] is over 10 µM; in test [3], 0.163 µM; in test [5] it was over 10 µM.
Consider `COc1c2ccoc2c(OC/C=C(\C)CO)c2oc(=O)ccc12` [Compound 5, E-5-methoxy-trichoclin], for which the Ki in test [1] (setting [8]) is over 10 µM; in test [2] it was 0.0635 µM; in test [3], 1.5 µM; in test [5] (setting [9]), over 10 µM. Further, the IC50 in test [4] (HeLa, 48 h) was over 100 µM.
Consider `COc1c2ccoc2c(OCC=C(C)C)c2oc(=O)ccc12` [Compound 7, phellopterin], for which the Ki in test [1] (setting [8]) is over 10 µM; in test [2] it was 0.787 µM; in test [3], 0.202 µM; in test [5] (setting [9]), over 10 µM.
Turning to `COc1cc2ccc(=O)oc2c2c1O[C@H](C(C)(C)O)C2` [Compound 11, Magydarin], the Ki in test [1] (setting [8]) was over 10 µM; in test [2] it was 0.623 µM; in test [3], 0.151 µM; in test [5] (setting [9]) it was over 10 µM. The IC50 in test [4] (HeLa, 48 h) is over 100 µM.
As to `CC(C)=CCC/C(C)=C/CC/C(C)=C/COc1ccc2ccc(=O)oc2c1` [Compound 15, umbelliprenin], the Ki in test [1] (setting [8]) is over 10 µM; in test [2], 0.0058 µM; in test [3], 0.266 µM; in test [5] (setting [9]), over 10 µM. Moreover, the IC50 in test [4] (HeLa, 48 h) is 75 µM. In test [6] (selectivity over off-target CA I/II), the “Ki ratio I/XII” value was over 1724. Also, in test [7], the “change of antiproliferative effect against 4T1 cells when encapsulated in nanoliposomes” value is “increased by five folds”.
With `CC(=O)O[C@@H](COc1c2occc2cc2ccc(=O)oc12)C(C)(C)O` [Compound 10, (+)-heraclenol acetate], the Ki in test [1] (setting [8]) is over 10 µM; in test [2], over 10 µM; in test [3], 0.192 µM; in test [5] (setting [9]), over 10 µM. Moreover, the “Ki ratio XII/IX (selectivity index hCA IX over hCA XII)” value in test [3] was over 52. In addition, the IC50 in test [4] (HeLa cells, MTT, measured at 48 h, normoxic) was over 100 µM.
For `COc1ccc2ccc(=O)oc2c1CC=C(C)C` [Compound 12, osthol], the Ki in test [1] (setting [8]) was over 10 µM; in test [2], 0.0745 µM; in test [3] it was 2.47 µM; in test [5] (setting [9]), over 10 µM. Further, in test [4] (HeLa, 48 h), the IC50 came out at 98 µM.
As to `COc1c2ccoc2cc2oc(=O)ccc12` [Compound 1, begapten], the Ki in test [1] (setting [8]) is over 10 µM; in test [2], 0.855 µM; in test [3], 1.95 µM; in test [5] (setting [9]), over 10 µM.
`COc1c2ccoc2c(OC)c2oc(=O)ccc12` [Compound 3, isopimpinellin]: the Ki is over 10 µM in test [1] (setting [8]), 0.59 µM in test [2], 0.16 µM in test [3] and over 10 µM in test [5] (setting [9]).
